For one assay, the target named is T1, Bovine brain FTase (Bos taurus, UniProt P29702+P49355).
T1 construct: an assay employing bovine brain FPTase; from tissue; host or cells: bovine brain
Put plainly: Assay of compounds for FPTase inhibitory activity, bovine brain FPTase. The assay is classed as biochemical. As for the experimental part:
The purified, recombinantly expressed, mammalian FPTase is employed in an assay to determine the inhibitory activity against FPTase mediated farnesylation of Ras by various pharmaceutical compounds. […] The purified mammalian FPTase is then added to the assay mixture and the assay mixture is incubated for a period of time such as 10-30 minutes at 30° C. The assay mixture is then quenched and the Ras protein is separated from free FPP by techniques well known in the art. […] This value may be compared to the relative value of the amount of Ras farnesylated in the absence of the pharmaceutical agent and to the relative value of the amount of Ras farnesylated in the presence of other pharmaceutical agents.
[^3 H]Farnesyl diphosphate (FPP) (20 Ci/mmol) was purchased from New England Nuclear. In general, inhibitory activity assays were carried out at 30° C. A typical assay reaction contained (in a final volume of 50 μL): [^3 H]farnesyl diphosphate, Ras protein (3.5 μM), 50 mM HEPES, pH 7.5, 5 mM MgCl2, 1 mM dithiothreitol, and the compound to be assayed. After thermally preequilibrating the assay mixture, the reaction was initiated by the addition of the purified mammalian FPTase and the reaction was stopped at timed intervals by the addition of 1M HCl in ethanol (1 mL). The quenched reactions were allowed to stand for 15 minutes. After adding 2 mL of 100% ethanol, the mixtures were vacuum filtered through Whatman GF/C filters. Filters were washed four times with 2 mL aliquots of 100% ethanol, mixed with scintillation fluid (10 mL) and then counted in a Beckmann LS3801 scintillation counter.

Another assay concerns the target T2, human FPTase (Homo sapiens, UniProt P49354+P49356).
T2 construct: codons for Glutamic acid-Glutamic acid-Phenylalanine-stop were placed after the last codon for the β subunit; made in house; host or cells: E. coli DH5a
As to the kind of experiment: Assay of compounds for FPTase inhibitory activity, once purified human FPTase. The assay is classed as biochemical.

The mark [1] stands for this setting: Bovine brain FTase, Ras protein 3.5 μM, pH 7.5, 30° C, * = alternative substrates (CVIM, CVIL, FPP).
The mark [2] stands for this setting: Human FTase, Ras protein 3.5 μM, pH 7.5, 30° C, * = alternative substrates (CVIM, CVIL, FPP).

The results in this text go back to US5821118A, “Genes for the subunits of human farnesyl-protein transferase” (Merck & Co., Inc., priority 1995, dated 1998).

Where two headings read alike, the source gives them in different places.

`CC(C)=CCC/C(C)=C/CC/C(C)=C/C(O)P(=O)(O)O` (racemic) [Compound A, (R,S)[1hydroxy-(E,E)-3,7,11-trimethyl-2,6,10-dodeca-trienyl]phosphonic acid]: the IC50 came to 20 nM against Bovine brain FTase and 18 nM on human FPTase.
In the same order, the values of `CC(C)=CCC/C(C)=C/CC/C(C)=C/CO[P@@](=O)(O)OP(=O)(O)O` (stereo in doubt) [FPP, farnesyl diphosphate] are 200 nM and 250 nM.
In the same order, the values of `CC(C)=CCC/C(C)=C/CC/C(C)=C/CC/C(C)=C/COP(=O)(O)OP(=O)(O)O` [GGPP, geranylgeranyl-diphosphate] are 200 nM and 240 nM.
On to “cysteinylisolleucinyl-phenylalaninyl-methionine [CIFM]”, for which the IC50 on Bovine brain FTase (setting [1]) worked out at 10 nM; against human FPTase (setting [2]), 17 nM.
In the same order, the values of “cysteinylvalinyl-isolleucinyl-leucine (CVIL)” are 20000 nM and 6200 nM.
